Measurements as given in patent US20190106460A1, “BINDING INHIBITORS OF THE BETA. TRANSDUCIN REPEAT-CONTAINING PROTEIN” (priority 2011, published 2019).
Entries after “also recorded” stand apart in the source; their conditions may differ. Non-standard residues stand in square brackets, D forms with d. Residues, ends and D or L forms follow the SMILES beside them. *: point of attachment. Benzenesulfonyl(4-OMe) = COc1ccc(S(=O)(=O)*)cc1; Arachidoyl = CCCCCCCCCCCCCCCCCCCC(=O)*; Phe(3-F) = N[C@@H](Cc1cccc(F)c1)C(=O)O; Stearoyl = CCCCCCCCCCCCCCCCCC(=O)*; 2Naphthoyl = O=C(c1ccc2ccccc2c1)*; Brosyl = O=S(=O)(c1ccc(Br)cc1)*; Tos = Cc1ccc(S(=O)(=O)*)cc1; Ahx = NCCCCCC(=O)O

Experiments:
Type in all cases: cell-based
LNCaP (prostate cancer) = assay: xCELLigence cell viability / proliferation, LNCaP
Protocol: Example 9—Cell Based Activity of Cell Permeable Compounds on the xCELLigence Platform
The effects of the compounds shown in FIGS. 14A-14B were tested on cancer cell lines MCF7 (breast cancer) and LNCaP (prostate cancer) using the xCELLigence platform (http://www.roche-applied-science.com/sis/xcelligence/ezhome.html). This method of measuring cell viability via measuring cell index is known in the art.
Different doses of the compounds were tested on MCF7 cells to see if there would be an effect on their cell viability.
The control compound was compared to its partner active compound (UBP037).
(§1) xCELLigence Method • Before starting the experiment add 50 μL of medium (RPMI 1640, 10% fetal bovine serum, 100 units/mL penicillin, 100 ug/mL streptomycin, and 2 mmol/L glutamine, all from GIBCO) to each well of 96 well E-plate (Roche) and place the plate in the xCELLigence platform to measure the background. • LNCaP/PNT-1 cells are seeded (LNCaPs 80000 cells/well; PNT1 3000 cells/well) in the plate in complete medium and equilibrated for 60 mins at RT before returning to the xCELLigence platform and incubating at 37° C./5% CO2. • 24 hrs after seeding, remove 100 μL of medium was removed from each well and cells were treated with compounds or DMSO diluted in 100 μL of OptiMEM (GIBCO). • Replace the plate in the xCELLigence platform • Cells growth can then be monitored in real-time by the cell index profile on the xCELLigence readout screen • Cell growth can be expressed as normalized cell index and doubling time/slope calculated using the RTCA software.

PNT-1 cell line = assay: xCELLigence cell growth, non-malignant PNT-1
Protocol: as §1
The susceptibility of cancer cell lines versus non-cancer cell lines following treatment with the compounds was also investigated.

PDCD4 in MCF7 cells [1] = assay: In-cell western assay for PDCD4 accumulation; conditions: for accumulation of PDCD4, in cell western: MCF7, treatment with cell permeable compound; for cell based activity: general statement, different delivery vehicles
Protocol: In-Cell Western Assay for PDCD4 Accumulation.
To measure this an in-cell western assay was used and the peptidomimetics were delivered to the cells by nucleofection.
MCF7 cells were grown in 10 cm dishes in 10 ml DMEM+10% FBS and 1% Pen/Strep at 37° C./5% CO2. On the day of nucleofection, the dish was washed with 90% confluent MCF7 cells with 5 ml PBS, then 3 ml of Trypsin/EDTA was added and incubated at 37° C./5% CO2 for approximately 5 mins until the cells detached from the plastic. 7 ml of normal growth media was added and the number of cells present was counted using a haemocytometer.
The cells were centrifuged cells at 90 g for 10 mins at RT and the supernatant was removed. 100 μl of Nucleofection Buffer V+ Supplement was added (Lonza Biologics Cat no VCA-1003) per 8×10^5 cells, and the cells were added to peptidomimetics dissolved in <3% DMSO.
The cell/peptidomimetic mix was added to cuvettes supplied for the nucleofector and the sample was nucleofected using the recommended MCF7 programme for high cell viability (i.e. E-014). 500 μl of TPA (12-O-tetradecanoylphorbol-13-acetate)-supplemented growth media (i.e. DMEM/10% FBS/1% Pen-Strep/10 nM TPA) was added to the cuvette and 100 μl of this solution was transferred to a well of a 96 well plate and incubated at 37° C./5% CO2 for 8 hours.
The celled were fixed by removing the growth media, adding 3.7% Formaldehyde in PBS and incubating at RT for 20 mins. The plate was washed three times in PBS. And the cells were permeabilised by washing 5× for 5 mins each in PBS+0.1% Triton X-100.
The cells were blocked by adding 3% BSA in PBS-Tween to the cells and incubating at RT for 1.5 hours. An anti-PDCD4 antibody (Abcam cat no: ab80590) was added at a concentration of 1:1000 in 3% BSA in PBS-T (50 ul/well) and incubated at RT for 2.5 hours. The cells were washed 5× for 5 mins each with PBS-T before the secondary antibody (LiCor Biosciences Donkey Anti-Rabbit IRDye 800CW cat no 926-32213) was added at a concentration of 1:1000, along with the DNA stain DRAQ5 at a concentration of 1:10000, in 3% BSA in PBS-T (50 ul/well) and incubated at RT for 1 hour, protected from light.
The cells were washed cells 5× for 5 mins each with PBS-T and all the liquid was removed from the wells before the plate was read on the LiCor Biosciences Odyssey at 700 nm and 800 nm. The reading was normalised in the 800 nm channel to that in the 700 nm channel. The data are shown in FIG. 12, where DMSO was used as a negative control and 20 μM MG132 was used as a positive control. The data is presented as percentage activity with DMSO=0% and […]=100% activity. Error bars represent standard deviation from 3 replicates.
The compounds shown in FIGS. 14A-14B were synthesised to improve cell permeability. […] FIG. 16 compares the round II compounds (shown in FIGS. 14A-14B) with UBP036 in this assay. […] Inhibition of βTrCP, which is responsible for the degradation of both PDCD4 and β-catenin, causes a concomitant stabilisation and accumulation of levels of these proteins which can be measured by in cell western assay.

PDCD4 in LNCaP cells = assay: Traditional western blot for PDCD4, LNCaP
Excerpt: […]

PDCD4 in MCF7 cells [2] = assay: Traditional western blot for PDCD4, MCF7
Excerpt: […]

SMILES	cell growth / proliferation, xCELLigence (LNCaP (prostate cancer))	cell growth, xCELLigence (PNT-1 cell line)	accumulation of PDCD4, in cell western (PDCD4 in MCF7 cells [1])	PDCD4 accumulation, traditional western blot (PDCD4 in LNCaP cells)	PDCD4 accumulation, traditional western blot (PDCD4 in MCF7 cells [2])	cell based activity (PDCD4 in MCF7 cells [1])
CCCCCCCCCCCCCCCCCC(=O)NCCCC[C@H](NC(=O)CCCCCNC(=O)[C@H](Cc1c[nH]c2ccccc12)NC(=O)CNC(=O)[C@H](CCC(=O)O)NC(=O)[C@H](Cc1ccccc1)NC(=O)[C@@H](CC(=O)O)NC(=O)[C@H](CCC(=O)O)NS(=O)(=O)c1ccc(C)cc1)C(N)=O [Ts-EdFEGW-Ahx-K(Stearic)-NH2, reference compound] (Tos-E[dD]FEGW[Ahx]K(Stearoyl)-NH2)	levels of cell proliferation similar to that seen with DMSO					
CCCCCCCCCCCCCCCCCC(=O)NCCCC[C@H](NC(=O)CCCCCNC(=O)[C@H](CCC(=O)O)NC(=O)[C@H](Cc1c[nH]c2ccccc12)NC(=O)[C@H](Cc1cccc(F)c1)NC(=O)CNC(=O)[C@H](CCC(=O)O)NC(=O)[C@@H](CC(=O)O)NS(=O)(=O)c1ccc(OC)cc1)C(N)=O [UBP037, 4-(MeO)PhSO2-dEGF(3F)WE-Ahx-K(NHCOC17H35)-NH2] ({Benzenesulfonyl(4-OMe)}-[dD]EG[Phe(3-F)]WE[Ahx]K(Stearoyl)-NH2)	inhibit the growth; also recorded: severely restricts the proliferation	far less effect	inconclusive results	exhibited cellular activity	exhibited cellular activity	
NC(=O)[C@H](CCCCNC(=O)c1ccc2ccccc2c1)NC(=O)CCCCCNC(=O)[C@H](CCC(=O)O)NC(=O)[C@H](Cc1c[nH]c2ccccc12)NC(=O)[C@H](Cc1cccc(F)c1)NC(=O)CNC(=O)[C@H](CCC(=O)O)NC(=O)[C@@H](CC(=O)O)NS(=O)(=O)c1ccc(Br)cc1 [UBP090, 4-(Br)PhSO2-dEGF(3F)WE-Ahx-K(NHCO(2-Naphth))-NH2] (Brosyl-[dD]EG[Phe(3-F)]WE[Ahx]K(2Naphthoyl)-NH2)						display cell based activity
CCCCCCCCCCCCCCCCCCCC(=O)NCCCC[C@H](NC(=O)CCCCCNC(=O)[C@H](CCC(=O)O)NC(=O)[C@H](Cc1c[nH]c2ccccc12)NC(=O)[C@H](Cc1cccc(F)c1)NC(=O)CNC(=O)[C@H](CCC(=O)O)NC(=O)[C@@H](CC(=O)O)NS(=O)(=O)c1ccc(OC)cc1)C(N)=O [UBP038, 4-(MeO)PhSO2-dEGF(3F)WE-Ahx-K(NHCOC19H39)-NH2] ({Benzenesulfonyl(4-OMe)}-[dD]EG[Phe(3-F)]WE[Ahx]K(Arachidoyl)-NH2)	inhibit the growth	far less effect	inconclusive results	exhibited cellular activity	exhibited cellular activity	
COc1ccc(S(=O)(=O)N[C@H](CC(=O)O)C(=O)N[C@@H](CCC(=O)O)C(=O)NCC(=O)N[C@@H](Cc2cccc(F)c2)C(=O)N[C@@H](Cc2c[nH]c3ccccc23)C(=O)N[C@@H](CCC(=O)O)C(N)=O)cc1 [UBP022, 4-(MeO)-PhSO2-dEGF(3F)WE-NH2] ({Benzenesulfonyl(4-OMe)}-[dD]EG[Phe(3-F)]WE-NH2)						display cell based activity
